Measurements from patent publication US8114865B2, “Indazole derivatives as kinase inhibitors for the treatment of cancer” (Nerviano Medical Sciences S.R.L., priority 2006, dated 2012).

How the values were obtained:
[1] = target: IGF-1R (Homo sapiens, UniProt P08069); test: Biochemical assay for inhibitors of IGF-1R kinase activity (trans-phosphorylation, Dowex); parameters: amino acid residues 960-1367 of precursor protein; made in house; host or cells: H5 insect cells (baculovirus; virus generated in Sf21); conditions: read-out: IGF1R IC50
Protocol: Human cDNA was used as template for amplification by polymerase chain reaction (PCR) of the predicted cytoplasmic portion of IGF-1R (amino acid residues 960-1367 of precursor protein; see NCBI Entrez Protein Accession #P08069) which includes the entire kinase domain. PCR was conducted using the forward primer sequence 5′-[…]-3′ [SEQ ID NO: 1] and the reverse primer sequence 5′-[…]-3′[SEQ ID NO: 2].
In order to facilitate subsequent cloning steps, both primers comprise a BamHI restriction endonuclease site sequence. This PCR product was cloned in frame using BamHI sticky ends into a transfer vector for the baculovirus expression system, pVL1392 (Pharmingen), previously modified by insertion into the pVL1392 multiple cloning site of sequences encoding Glutathione S-transferase (GST) fusion protein, PreScission protease cleavage site and partial MCS cassette derived from the pGex-6P plasmid (Amersham BioSciences). Insertion of the IGF-1R PCR product described above into the pGex-6P derived BamHI site of the modified pVL1392 vector results in an open reading frame corresponding to the pGEX-6P GST protein and PreScission peptide fused with the human IGF-1R cytoplasmic domain. In order to obtain fusion protein, Sf21 insect cells (Invitrogen) are cotransfected with 2 microg of purified plasmid and 1 microg of virus DNA (BaculoGold™ Transfection Kit, Pharmingen), as described in the Baculovirus Instruction manual (Pharmingen). A first amplification of the virus is performed using 600 microL of cotransfected virus on 6×10^6 Sf21 in a monolayer culture, in 12 mL of medium (TNM-FH Grace's medium—Pharmingen). After 3 days the medium is collected, centrifuged and transferred to a sterile tube. A second amplification is prepared with the same method using 2 mL on 3×10^7 cells, diluted in 40 mL of medium. For the third amplification of virus, 1 mL of supernatant from the second round are used per 3×10^7 cells diluted in 40 mL of medium. […]
The inhibitory activity of putative kinase inhibitors and the potency of selected compounds were determined using a trans-phosphorylation assay. […]

[2] = target: T1, Aurora-2 (Homo sapiens, UniProt O14965); test: Biochemical assay for inhibitors of Aurora-2 kinase activity; conditions: read-out: Aur2 IC50
T1 sequence (O14965 1-403): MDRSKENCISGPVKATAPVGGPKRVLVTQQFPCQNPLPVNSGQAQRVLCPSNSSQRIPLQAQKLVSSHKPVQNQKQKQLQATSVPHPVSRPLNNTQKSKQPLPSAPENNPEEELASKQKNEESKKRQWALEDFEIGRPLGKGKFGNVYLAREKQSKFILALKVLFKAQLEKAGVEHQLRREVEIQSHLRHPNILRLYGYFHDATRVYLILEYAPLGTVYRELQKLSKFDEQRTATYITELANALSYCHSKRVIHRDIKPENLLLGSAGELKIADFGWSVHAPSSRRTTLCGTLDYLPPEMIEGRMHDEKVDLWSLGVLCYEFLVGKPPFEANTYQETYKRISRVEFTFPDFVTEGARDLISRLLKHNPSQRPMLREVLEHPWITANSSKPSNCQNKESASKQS
Protocol: The in vitro kinase inhibition assay was conducted mimilarly as described for IGF-1R.
The kinase buffer was composed of 50 mM HEPES, pH 7.0, 10 mM MgCl2, 1 mM DTT, 3 microM Na3VO4, and 0.2 mg/mL BSA.
The kinase assay was run with an enzyme concentration of 2.5 nM, 10 microM ATP, 1 nM ^33P-γ-ATP, and 8 microM substrate, composed of 4 LRRWSLG repeats.

IGF-1R, sequence (P08069 960-1367): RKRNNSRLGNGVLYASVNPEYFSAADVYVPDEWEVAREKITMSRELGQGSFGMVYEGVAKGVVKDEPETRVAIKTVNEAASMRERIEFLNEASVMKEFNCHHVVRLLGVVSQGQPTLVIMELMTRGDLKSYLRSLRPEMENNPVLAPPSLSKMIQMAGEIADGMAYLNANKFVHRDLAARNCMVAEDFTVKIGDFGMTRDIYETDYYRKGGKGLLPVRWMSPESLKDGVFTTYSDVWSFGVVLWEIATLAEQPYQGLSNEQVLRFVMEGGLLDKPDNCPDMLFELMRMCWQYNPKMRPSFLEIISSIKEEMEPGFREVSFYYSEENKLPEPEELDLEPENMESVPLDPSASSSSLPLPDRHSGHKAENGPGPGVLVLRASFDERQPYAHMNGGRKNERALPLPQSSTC

| SMILES | IC50 [1] [nM] | IC50 [2] [nM] |
| --- | --- | --- |
| CN1CCN(c2ccc(C(=O)Nc3n[nH]c4ccc(S(=O)(=O)c5ccccc5)cc34)cc2)CC1 [Compound 1, N-(5-Benzenesulfonyl-1H-indazol-3-yl)-4-(4-methyl-piperazin-1-yl)-benzamide] | 850 | 26 |
| CN1CCN(c2ccc(C(=O)Nc3n[nH]c4ccc(S(=O)(=O)c5ccccc5)cc34)c(NC(=O)c3ccc[nH]3)c2)CC1 [Compound 33, 1H-pyrrole-2-carboxylic acid [2-(5-benzenesulfonyl-1H-indazol-3-ylcarbamoyl)-5-(4-methyl-piperazin-1-yl)-phenyl]amide] | 36 | 9 |
| CN1CCN(c2ccc(C(=O)Nc3n[nH]c4ccc(S(=O)(=O)c5ccccc5)cc34)c(NC(=O)[C@@H]3CCCO3)c2)CC1 [Compound 36, (S)-Tetrahydro-furan-2-carboxylic acid [2-(5-benzenesulfonyl-1H-indazol-3-ylcarbamoyl)-5-(4-methyl-piperazin-1-yl)-phenyl]-amide] | 230 | 19 |
